# Test results published in patent US6890533B2, “Betulinol derivatives” (Cornell Research Foundation, Inc., priority 1997, dated 2005).
# Tests used:
# [1] = system: WALKER-CARCINOMA (carcinosarcoma); assay: anti-carcinogenic activity in rats implanted with Walker carcinoma; type: in vivo, white rats; settings: for ALL, % of control / ALL (Average length of life) / % cured: rats; for ALL (Average length of life): injected daily for 5 days; for % cured: cured rats lived over two months after implantation
# Protocol: The anti-carcinogenic activity of betulinol biacetate and betulonic aldehyde was assessed using 117-120 gram white rats implanted with worker's carcinoma and 21-23 gram white mice with artificially transplanted Ehrlich's tumor.
# Solutions of 2.5% betulonic aldehyde and 0.05% betulinol biacetate were prepared in 10% polyvinylpyrrolidone containing Tween-80 (a sorbitan mono-9-octadecenate poly(oxy-1,2-ethanediyl)) stabilizer.
# Mice were injected with 0.1-0.2 ml of either betulinol biacetate or betulonic aldehyde solution daily, starting 24 hours after transplantation, for the following 5 days. Rats were injected with 1.2 ml of either betulinol biacetate or betulonic aldehyde solution daily, starting 24 hours after implantation, for the following 5 days. Animals in control groups received the same amount of a 10% solution of polyvinylpyrrolidone.
# The anti-tumor effect of betulinol acetate or betulonic aldehyde was determined by measuring the volume of the tumor on the 10th day after implantation. An average length of life (“ALL”) was calculated for each of the deceased animals. In addition, the percentage of cured rats was also determined.
# The volume of the tumor was measured and calculated as a multiple of the quadrate of its similar diameter by the greater diameter. Thus, the effect was expressed as a ratio (“E/C”), in percent, of the tumor volume in rats treated with betulinol acetate or betulonic aldehyde (“E”) and the tumor volume in control rats (“C”). The effect of betulinol acetate or betulonic aldehyde on ALL was evaluated the same way.
# [2] = BBA solubility in organic solvents; type: physicochemical; settings: for BBA Mass Content, %, at 20° C.: mass % in organic solvent
# Protocol: Studies of betulinol biacetate solubility were conducted in order to determine the appropriate solvent for product crystallization and purification.
# [3] = Group 1, Dose/day 204.6 (mg/kg body weight)
# [4] = Group 2, Dose/day 106.9 (mg/kg body weight)
smiles,measurement,setting,value
"C=C(C)[C@@H]1CC[C@]2(COC(C)=O)CC[C@]3(C)[C@H](CC[C@@H]4[C@@]5(C)CC[C@H](OC(C)=O)C(C)(C)[C@@H]5CC[C@]43C)[C@@H]12 [Betulinol diacetate, Betulinol Biacetate]","ALL, % of control",[1]; [3],131.3%
same,ALL (Average length of life),[1]; [3],28.5 days
same,% cured,[1]; [3],50.0%
same,"ALL, % of control",[1]; [4],200.5%
same,ALL (Average length of life),[1]; [4],43.5 days
same,% cured,[1]; [4],67.0%
same,"rate of the tumor growth inhibited, of the control group","[1]; tumor volume on the 10th day, versus control group",55.2%
same,"BBA Mass Content, %, at 20° C.",[2]; Benzene,100%
same,"BBA Mass Content, %, at T (° C.)","[2]; Butanol, T 95 ° C.",100%
same,"BBA Mass Content, %, at 20° C.",[2]; Chloroform,100%
same,"BBA Mass Content, %, at 20° C.",[2]; Dimethylsulfoxide,30%
same,"BBA Mass Content, %, at T (° C.)","[2]; Dimethylsulfoxide, T 189 ° C.",100%
same,"BBA Mass Content, %, at T (° C.)","[2]; Dioxane, T 101 ° C.",100%
same,"BBA Mass Content, %, at 20° C.",[2]; Hexane,15%
same,"BBA Mass Content, %, at 20° C.",[2]; Toluene,100%
